# Key:
# [1] = target: DNA-3-methyladenine glycosylase (Homo sapiens) (UniProt P29372); conditions: Compound Concentration 10.0 uM, Hit No;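 also: enzyme assay where MPG cuts a quenched duplex DNA oligonucleotide probe, paired with APE1 for strand incision and turnover, read as fluorescence at 594 nm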
# Description: Inhibition of MPG by quantifying inhibition of MPG-mediated cleavage and dissociation of quenched duplex DNA oligonucleotides, measured as fluorescence at 594 nm. To generate a functional strand incision and increase turn-over this assay is coupled to APE1.
# [2] = target: Endonuclease 8-like 1 (Homo sapiens) (UniProt Q96FI4); conditions: Hit No;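 also: fluorescence at 594 nm from quenched duplex DNA oligonucleotides released by NEIL1 cleavage and strand separation, reported as reduction of this enzyme activity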
# Description: Inhibition of NEIL1 by quantifying inhibition of NEIL1-mediated cleavage and dissociation of quenched duplex DNA oligonucleotides, measured as fluorescence at 594 nm.
# [3] = target: T1, Endonuclease 8-like 2 (Homo sapiens) (UniProt Q969S2); conditions: Hit No;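 also: fluorescence at 594 nm reports NEIL2 cutting and release of a quenched double-stranded DNA oligo substrate, reduced signal read as inhibition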
# T1 sequence (whole entry): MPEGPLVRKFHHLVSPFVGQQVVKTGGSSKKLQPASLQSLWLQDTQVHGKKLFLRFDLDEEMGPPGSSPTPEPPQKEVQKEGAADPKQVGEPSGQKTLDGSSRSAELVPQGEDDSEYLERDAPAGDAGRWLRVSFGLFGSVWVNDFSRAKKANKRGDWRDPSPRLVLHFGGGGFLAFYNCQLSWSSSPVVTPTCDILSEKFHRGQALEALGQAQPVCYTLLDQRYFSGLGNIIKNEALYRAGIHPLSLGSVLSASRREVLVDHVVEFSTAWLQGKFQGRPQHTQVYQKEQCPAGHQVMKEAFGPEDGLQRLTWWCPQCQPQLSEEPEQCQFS
# Description: Inhibition of NEIL2 by quantifying inhibition of NEIL2-mediated cleavage and dissociation of quenched duplex DNA oligonucleotides, measured as fluorescence at 594 nm.
# [4] = target: G/T mismatch-specific thymine DNA glycosylase (Homo sapiens) (UniProt Q13569); conditions: Hit No;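 also: human TDG cleavage of quenched duplex DNA oligonucleotides coupled to APE1, strand release read as fluorescence at 594 nm, inhibition of TDG activity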
# Description: Inhibition of TDG by quantifying inhibition of TDG-mediated cleavage and dissociation of quenched duplex DNA oligonucleotides, measured as fluorescence at 594 nm. To generate a functional strand incision and increase turn-over this assay is coupled to APE1.
# [5] = target: N-glycosylase/DNA lyase (Homo sapiens) (UniProt O15527); conditions: Hit No;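 also: OGG1 cleavage of a quenched duplex DNA oligonucleotide, coupled to APE1 for strand incision, read as fluorescence at 594 nm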
# Description: Inhibition of OGG1 by quantifying inhibition of OGG1-mediated cleavage and dissociation of quenched duplex DNA oligonucleotides, measured as fluorescence at 594 nm. To generate a functional strand incision and increase turn-over this assay is coupled to APE1.
# [6] = target: T2, Single-strand selective monofunctional uracil DNA glycosylase (Homo sapiens) (UniProt Q53HV7); conditions: Hit No;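 also: enzymatic SMUG1 assay coupled with APE1, reading fluorescence at 594 nm released when a quenched double-stranded DNA oligonucleotide substrate is cleaved and separated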
# T2 sequence (whole entry): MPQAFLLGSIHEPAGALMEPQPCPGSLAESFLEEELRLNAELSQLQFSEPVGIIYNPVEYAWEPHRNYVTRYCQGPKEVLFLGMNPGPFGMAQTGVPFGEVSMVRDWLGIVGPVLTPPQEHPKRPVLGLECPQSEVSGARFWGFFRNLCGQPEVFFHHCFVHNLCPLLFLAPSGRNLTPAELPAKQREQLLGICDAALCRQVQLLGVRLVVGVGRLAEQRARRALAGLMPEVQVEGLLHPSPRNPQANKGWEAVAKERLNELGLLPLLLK
# Description: Inhibition of SMUG1 by quantifying inhibition of SMUG1-mediated cleavage and dissociation of quenched duplex DNA oligonucleotides, measured as fluorescence at 594 nm. To generate a functional strand incision and increase turn-over this assay is coupled to APE1.
# [7] = target: Methyl-CpG-binding domain protein 4 (Homo sapiens) (UniProt O95243);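 also: MBD4 activity read as fluorescence at 594 nm from cleavage and release of a quenched duplex DNA oligonucleotide, with APE1 coupled to incise the strand and raise turnover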
# Description: Inhibition of MBD4 by quantifying inhibition of MBD4-mediated cleavage and dissociation of quenched duplex DNA oligonucleotides, measured as fluorescence at 594 nm. To generate a functional strand incision and increase turn-over this assay is coupled to APE1.
# [8] = target: Uracil-DNA glycosylase (Homo sapiens) (UniProt P13051); conditions: Hit No;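 also: UNG excision on a quenched double-stranded DNA oligo probe, with APE1 added for strand incision and turnover, read as fluorescence at 594 nm as strands separate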
# Description: Inhibition of UNG by quantifying inhibition of UNG-mediated cleavage and dissociation of quenched duplex DNA oligonucleotides, measured as fluorescence at 594 nm. To generate a functional strand incision and increase turn-over this assay is coupled to APE1.
# [9] = target: T3, Adenine DNA glycosylase (Homo sapiens) (UniProt Q9UIF7); conditions: Hit No;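 also: human MUTYH activity read as 594 nm fluorescence from cleavage and release of a quenched DNA duplex, coupled with APE1 for strand incision, lower signal meaning inhibition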
# T3 sequence (whole entry): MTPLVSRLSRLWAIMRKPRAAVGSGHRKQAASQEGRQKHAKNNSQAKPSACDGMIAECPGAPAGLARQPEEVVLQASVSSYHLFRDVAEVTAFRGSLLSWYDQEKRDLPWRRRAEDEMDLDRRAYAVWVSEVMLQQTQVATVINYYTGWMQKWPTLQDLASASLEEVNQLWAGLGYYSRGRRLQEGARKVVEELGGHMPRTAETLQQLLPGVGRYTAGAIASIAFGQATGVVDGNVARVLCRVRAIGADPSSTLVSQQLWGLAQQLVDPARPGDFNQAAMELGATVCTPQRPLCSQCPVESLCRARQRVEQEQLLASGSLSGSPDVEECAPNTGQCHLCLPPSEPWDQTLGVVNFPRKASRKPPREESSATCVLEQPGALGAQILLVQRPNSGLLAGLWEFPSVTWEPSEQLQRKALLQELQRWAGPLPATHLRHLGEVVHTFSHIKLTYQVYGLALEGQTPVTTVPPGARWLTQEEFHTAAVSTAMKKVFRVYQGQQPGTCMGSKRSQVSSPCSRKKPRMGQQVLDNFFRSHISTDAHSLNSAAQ
# Description: Inhibition of MUTYH by quantifying inhibition of MUTYH-mediated cleavage and dissociation of quenched duplex DNA oligonucleotides, measured as fluorescence at 594 nm. To generate a functional strand incision and increase turn-over this assay is coupled to APE1.
# [10] = target: T4, Endonuclease III-like protein 1 (Homo sapiens) (UniProt P78549); conditions: Hit No;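 also: enzyme assay tracking NTHL1 cutting and release of a quenched double-stranded DNA oligo substrate, read as fluorescence at 594 nm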
# T4 sequence (whole entry): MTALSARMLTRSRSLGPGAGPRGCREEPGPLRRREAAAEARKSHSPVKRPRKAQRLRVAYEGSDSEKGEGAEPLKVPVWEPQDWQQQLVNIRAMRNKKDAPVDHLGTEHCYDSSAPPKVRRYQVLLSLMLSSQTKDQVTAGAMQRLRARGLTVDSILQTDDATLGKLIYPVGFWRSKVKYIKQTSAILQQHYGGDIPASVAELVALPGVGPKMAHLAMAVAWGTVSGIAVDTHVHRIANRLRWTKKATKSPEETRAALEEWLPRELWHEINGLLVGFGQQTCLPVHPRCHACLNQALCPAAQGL
# Description: Inhibition of NTHL1 by quantifying inhibition of NTHL1-mediated cleavage and dissociation of quenched duplex DNA oligonucleotides, measured as fluorescence at 594 nm.
# [11] = Compound Concentration 10.0 uM, Hit No
# [12] = Compound Concentration 1.0 uM, Hit No
# Chain of DNA-3-methyladenine glycosylase (Homo sapiens) (P29372 whole entry): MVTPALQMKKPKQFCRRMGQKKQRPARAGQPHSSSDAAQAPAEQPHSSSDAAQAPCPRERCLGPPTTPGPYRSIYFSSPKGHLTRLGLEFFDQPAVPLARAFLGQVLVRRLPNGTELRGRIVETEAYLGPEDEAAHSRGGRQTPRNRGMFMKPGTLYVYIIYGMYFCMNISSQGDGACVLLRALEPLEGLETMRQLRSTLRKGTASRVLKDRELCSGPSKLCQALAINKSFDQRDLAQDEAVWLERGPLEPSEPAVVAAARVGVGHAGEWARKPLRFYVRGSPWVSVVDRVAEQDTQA
# Chain of Endonuclease 8-like 1 (Homo sapiens) (Q96FI4 whole entry): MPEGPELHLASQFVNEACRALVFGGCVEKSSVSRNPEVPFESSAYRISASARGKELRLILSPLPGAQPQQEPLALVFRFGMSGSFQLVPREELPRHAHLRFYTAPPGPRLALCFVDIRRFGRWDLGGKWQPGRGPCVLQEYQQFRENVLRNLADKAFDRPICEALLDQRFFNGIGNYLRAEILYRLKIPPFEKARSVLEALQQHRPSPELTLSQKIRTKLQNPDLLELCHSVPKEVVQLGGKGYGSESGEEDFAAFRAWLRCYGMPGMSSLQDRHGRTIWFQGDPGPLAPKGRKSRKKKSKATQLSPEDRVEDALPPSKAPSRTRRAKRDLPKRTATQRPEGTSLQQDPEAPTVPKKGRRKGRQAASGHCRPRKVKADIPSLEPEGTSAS
# Chain of Uracil-DNA glycosylase (Homo sapiens) (P13051 whole entry): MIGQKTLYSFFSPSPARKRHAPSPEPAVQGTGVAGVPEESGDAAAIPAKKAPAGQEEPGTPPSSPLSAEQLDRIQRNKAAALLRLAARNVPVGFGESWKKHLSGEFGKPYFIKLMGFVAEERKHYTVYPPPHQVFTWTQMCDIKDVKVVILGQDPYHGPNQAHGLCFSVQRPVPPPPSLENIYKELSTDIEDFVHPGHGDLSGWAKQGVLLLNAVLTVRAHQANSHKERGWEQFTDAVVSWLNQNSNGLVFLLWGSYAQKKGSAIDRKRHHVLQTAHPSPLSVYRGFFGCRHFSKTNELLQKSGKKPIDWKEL
# Chain of Methyl-CpG-binding domain protein 4 (Homo sapiens) (O95243 whole entry, the tested form may be a part): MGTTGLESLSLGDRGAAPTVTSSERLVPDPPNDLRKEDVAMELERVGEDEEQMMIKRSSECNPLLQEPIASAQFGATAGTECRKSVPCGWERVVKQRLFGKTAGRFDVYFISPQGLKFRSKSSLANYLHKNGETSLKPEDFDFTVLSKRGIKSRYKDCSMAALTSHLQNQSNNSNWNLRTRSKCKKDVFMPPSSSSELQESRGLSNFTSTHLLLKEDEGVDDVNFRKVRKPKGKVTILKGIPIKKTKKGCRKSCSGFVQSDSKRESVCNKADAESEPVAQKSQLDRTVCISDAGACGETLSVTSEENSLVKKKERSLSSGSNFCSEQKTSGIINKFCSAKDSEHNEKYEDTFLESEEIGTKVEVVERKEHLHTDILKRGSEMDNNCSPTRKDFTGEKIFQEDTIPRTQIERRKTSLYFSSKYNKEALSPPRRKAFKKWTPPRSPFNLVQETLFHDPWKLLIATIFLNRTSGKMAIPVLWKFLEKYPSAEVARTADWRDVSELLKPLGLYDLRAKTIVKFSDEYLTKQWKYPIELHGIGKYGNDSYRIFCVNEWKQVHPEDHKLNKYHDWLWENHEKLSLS
# Chain of G/T mismatch-specific thymine DNA glycosylase (Homo sapiens) (Q13569 whole entry): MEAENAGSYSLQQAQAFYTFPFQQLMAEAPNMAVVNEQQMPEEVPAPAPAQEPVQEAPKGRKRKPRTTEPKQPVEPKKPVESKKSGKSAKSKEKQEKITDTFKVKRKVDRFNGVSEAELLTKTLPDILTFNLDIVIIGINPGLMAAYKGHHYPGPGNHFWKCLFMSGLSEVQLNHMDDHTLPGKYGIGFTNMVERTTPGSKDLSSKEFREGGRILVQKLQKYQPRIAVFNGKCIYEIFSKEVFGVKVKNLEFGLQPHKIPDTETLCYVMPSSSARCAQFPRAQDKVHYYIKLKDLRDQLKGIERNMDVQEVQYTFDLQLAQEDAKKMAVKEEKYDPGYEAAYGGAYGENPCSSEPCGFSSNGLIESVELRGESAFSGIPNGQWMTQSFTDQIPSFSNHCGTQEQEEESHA
# Chain of N-glycosylase/DNA lyase (Homo sapiens) (O15527 whole entry): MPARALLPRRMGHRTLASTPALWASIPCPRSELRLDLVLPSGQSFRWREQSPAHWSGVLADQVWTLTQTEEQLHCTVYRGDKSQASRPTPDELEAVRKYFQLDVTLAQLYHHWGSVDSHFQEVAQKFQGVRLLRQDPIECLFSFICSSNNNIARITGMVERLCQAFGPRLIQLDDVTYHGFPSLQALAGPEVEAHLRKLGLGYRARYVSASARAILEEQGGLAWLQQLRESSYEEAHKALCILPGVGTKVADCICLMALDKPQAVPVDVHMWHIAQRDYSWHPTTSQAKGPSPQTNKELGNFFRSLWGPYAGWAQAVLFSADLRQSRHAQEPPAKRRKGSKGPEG
inhibition [1] [%],inhibition ([2]; Compound Concentration 10.0 uM) [%],inhibition ([3]; Compound Concentration 10.0 uM) [%],inhibition ([4]; Compound Concentration 10.0 uM) [%],inhibition ([5]; Compound Concentration 10.0 uM) [%],inhibition ([6]; Compound Concentration 10.0 uM) [%],"inhibition [7, 11] [%]",inhibition ([8]; Compound Concentration 10.0 uM) [%],"inhibition ([7]; Compound Concentration 10.0 uM, Hit Yes) [%]","inhibition [7, 12] [%]",inhibition ([9]; Compound Concentration 1.0 uM) [%],inhibition ([2]; Compound Concentration 1.0 uM) [%],inhibition ([3]; Compound Concentration 1.0 uM) [%],inhibition ([10]; Compound Concentration 1.0 uM) [%],inhibition ([5]; Compound Concentration 1.0 uM) [%],inhibition ([6]; Compound Concentration 1.0 uM) [%],inhibition ([4]; Compound Concentration 1.0 uM) [%],inhibition ([8]; Compound Concentration 1.0 uM) [%],inhibition ([9]; Compound Concentration 10.0 uM) [%],inhibition ([10]; Compound Concentration 10.0 uM) [%],Structure (SMILES)
-1.59,0.834,-5.22,16.4,-1.28,-6.62,,,,,,,,,,,,,,,Cc1csc2c(N[C@@H](C)CN3CCN(S(=O)(=O)c4ccc(Cl)c(Cl)c4)CC3)ncnc12
9.17,4.1,2.26,17.1,-1.59,10.2,8.63,-5.14,,,,,,,,,,,,,CC[C@@H](C)Nc1nc(C)nc2c(-c3ccc(OC)nc3C)c(C)nn12
-4.83,5.58,7.25,-7.89,2.18,-9.82,,,,,,,,,,,,,,,CC(C)c1cc(-c2ccc(F)c3ccccc23)nc(N)n1
-3.95,,-8.22,-6.05,-8.25,,,,,,,,,,,,,,,,COc1ccncc1C(=O)NC(=O)Nc1ccc(-c2ccccc2)c(C(F)(F)F)c1
-1.21,-2.72,,-4.93,,,-3.33,-7.72,,,,,,,,,,,,,Nc1nc(-c2ccco2)c2cnn(Cc3ccccc3F)c2n1
-9.35,,13.7,35.3,-5.2,9.7,-5.72,-9.34,,,,,,,,,,,,,COC(=O)C1=C(C)NC(C)=C(C(=O)OCCCN2CCC(c3ccccc3)(c3ccccc3)CC2)[C@H]1c1cccc([N+](=O)[O-])c1
-3.29,0.454,-6.46,0.0736,,-1.14,,-3.75,,,,,,,,,,,,,CC(C)Oc1ccc(Cc2ccc(NC3=NCCN3)cc2)cc1
-9.23,-7.17,0.515,14.5,-0.805,1.52,,-8.14,,,,,,,,,,,,,CN1CCCC(n2nc(Cc3ccc(Cl)cc3)c3ccccc3c2=O)CC1 (configuration not stated)
13.7,-1.54,-8.97,6.8,-9.41,,-8.91,,,,,,,,,,,,,,C[C@H](NC(=O)CNC(=O)c1cccc(Cl)c1)c1ccccc1
14.3,4.99,11,10.4,9.63,,0.789,-4.08,,,,,,,,,,,,,COc1ccccc1N1CCN(CCCCNC(=O)c2ccc3ccccc3c2)CC1
3.5,11.2,,19,1.31,3.41,11.9,-6.85,,,,,,,,,,,,,Cc1[nH]cnc1CN1CCc2c(c3ccccc3n2C)C1=O
,,,,,,,,,14.1,7.35,6.48,3.74,0.785,5.38,23.8,48.5,6.36,,,Cc1ccc(C(=O)Nc2cccc(C(F)(F)F)c2)cc1Nc1nc(-c2cccnc2)nc2c1cnn2C
,-3.56,2.66,59.4,-8.63,19.5,17.2,12.3,,,,,,,,,,,18.6,1.48,CCOc1cc(N2CCC(O)CC2)ccc1Nc1ncc2c(n1)N(C)c1ccccc1C(=O)N2C
,4.71,1.04,63,,15.6,67.5,4.62,,101,-9.65,-5.67,-5.15,,11.8,3.32,34.4,-5.93,-0.542,-7.86,C[C@@H]1CN(c2cc(-c3nn(C)c4ccc(OC5(C)CC5)cc34)ncn2)C[C@H](C)O1
,4.86,22.2,46.8,7.46,16.1,79.8,7.63,,,,,,,,,,,10.5,-6.55,CN(C)[C@@H]1CCN(c2cc(-c3ccccc3)nc3ccnn23)C1
-3.71,-2.58,2.26,17.6,0.253,-2.07,4.16,,,,,,,,,,,,,,Cc1cc(Cn2nnc3c(-c4ccco4)nc(N)nc32)ccc1N

# Further lines, the compound ahead of its results:
Structure (SMILES),inhibition [1] [%],inhibition ([2]; Compound Concentration 10.0 uM) [%],inhibition ([3]; Compound Concentration 10.0 uM) [%],inhibition ([4]; Compound Concentration 10.0 uM) [%],inhibition ([5]; Compound Concentration 10.0 uM) [%],inhibition ([6]; Compound Concentration 10.0 uM) [%],"inhibition [7, 11] [%]",inhibition ([8]; Compound Concentration 10.0 uM) [%],"inhibition ([7]; Compound Concentration 10.0 uM, Hit Yes) [%]","inhibition [7, 12] [%]",inhibition ([9]; Compound Concentration 1.0 uM) [%],inhibition ([2]; Compound Concentration 1.0 uM) [%],inhibition ([3]; Compound Concentration 1.0 uM) [%],inhibition ([10]; Compound Concentration 1.0 uM) [%],inhibition ([5]; Compound Concentration 1.0 uM) [%],inhibition ([6]; Compound Concentration 1.0 uM) [%],inhibition ([4]; Compound Concentration 1.0 uM) [%],inhibition ([8]; Compound Concentration 1.0 uM) [%],inhibition ([9]; Compound Concentration 10.0 uM) [%],inhibition ([10]; Compound Concentration 10.0 uM) [%]
Cn1cc(C(=O)OCC2CCN(CCNS(C)(=O)=O)CC2)c2ccccc21,11.2,1.28,2.51,-0.888,,,,,,,,,,,,,,,,
CCOc1ccccc1C(=O)NCC1(N2CCN(CC)CC2)CCCCC1,-0.78,-3.55,3.22,5.23,,-8.6,-3.81,-8.16,,,,,,,,,,,,
CCC(=O)NCC[C@@H]1CCc2ccc3c(c21)CCO3,4.81,10.6,6,9.54,6.47,-9.19,-9.72,-9.69,,,,,,,,,,,,
COC(=O)[C@H]1[C@H]2C[C@H]3c4[nH]c5ccccc5c4CCN3C[C@H]2CC[C@@H]1O,14.5,2.02,9.75,5.99,-6.57,,,,,,,,,,,,,,,
O=c1ccn([C@@H]2O[C@H](COP(=O)(O)OP(=O)(O)OP(=O)(O)O)[C@@H](O)[C@H]2O)c(=O)[nH]1,-2.4,-1.39,-9.97,-4.53,-2.46,,,,,,,,,,,,,,,
CSc1ccccc1N1CCN(CCCCCC(=O)NC2CCCc3ccccc32)CC1 (configuration not stated),6.14,7.57,,1.58,-6.45,-2.78,,-4.03,,,,,,,,,,,,
CC(C)(O)CCn1c(=O)n(C(=O)N[C@H](C(N)=O)C(C)(C)C)c2ccccc21,-4.33,2.61,1.76,10.8,-0.203,-3.57,,-9.98,,,,,,,,,,,,
CCOc1ccc(Cc2nc3cc(C(=O)N(CC)CC)ccc3n2CC2CCCCC2)cc1,-2.6,2.91,4.01,2.76,9.81,2.19,,-9.77,,,,,,,,,,,,
Cc1ccc(OCC(O)C(C)NC(C)C)c2c1CCC2 (configuration not stated),6.31,7.65,-0.983,8.49,-9.41,,,,134,,,,,,,,,,,
CC1(C)CCC(C)(C)c2cc(C(=O)Nc3ccc(C(=O)O)cc3)ccc21,,-3.17,-6.36,100,27.8,16.9,58.8,5.57,,,,,,,,,,,14.4,2.66
CCCCN1CCC(COC(=O)c2cc(Cl)c(N)c3c2OCCO3)CC1,,5.28,2.51,14.3,-1.24,8.49,4.39,-2.45,,,,,,,,,,,-7.02,-3.21

# — ChEMBL document CHEMBL5665443, “Enzyme Inhibitor Single Concentration assay results for EUbOPEN Chemogenomics Library” (2024)
